Measurements taken from patent US9169315B2, “Heparin cofactor II fragments with anti-inflammatory and anti-coagulant activity” (XIMMUNE AB, priority 2009, dated 2015).
Read-outs that look alike come from different tables or passages of the source. No end group written: not given here.

Tests used:
[1] = system: E. coli; format: cell-based, Escherichia coli
Description: (§1) MIC assay was carried out by a microtiter broth dilution method as previously described in the NCSLA guidelines (Wiegand, I., Hilpert, K. & Hancock, R. E. Agar and broth dilution methods to determine the minimal inhibitory concentration (MIC) of antimicrobial substances. Nat Protoc 3, 163-175 (2008)). In brief, fresh overnight colonies were suspended to a turbidity of 0.5 units and further diluted in Mueller-Hinton broth (Becton Dickinson). For determination of MIC, peptides were dissolved in water at concentration 10 times higher than the required range by serial dilutions from a stock solution. Ten μl of each concentration was added to each corresponding well of a 96-well microtiter plate (polypropylene, Costar Corp.) and 90 μl of bacteria (1×10^5) in MH medium added. The plate was incubated at 37° C. for 16-18 h. MIC was taken as the lowest concentration where no visual growth of bacteria was detected.

[2] = system: P. aeruginosa; format: cell-based, Pseudomonas aeruginosa
Description: as §1

[3] = system: S. aureus; format: cell-based, Staphylococcus aureus
Description: as §1

[4] = system: E. faecalis; test: MIC, microtiter broth dilution; format: cell-based; conditions: E. faecalis Clinical isolate 2374
Description: as §1

[5] = system: S. pneumoniae; format: cell-based
Description: as §1

[6] = system: S. pyogenes; format: cell-based; conditions: S. pyogenes AP1
Description: as §1

[7] = system: human blood; conditions: corresponding number for LL-37 (Malmsten et al., in manuscript); cited from earlier work

“ILRWPWWPWRRK-NH2 [Omiganan, reference compound]” gave an MIC [1] of 20 µM, an MIC ([1]; E. coli Clinical isolate 47.1) of 20 µM and an MIC ([1]; E. coli Clinical isolate 49.1) of 10 µM. The MIC ([2]; P. aeruginosa ATCC 27853) was 160 µM, the MIC ([2]; P. aeruginosa Clinical isolate 10.5) was 40 µM and the MIC ([2]; P. aeruginosa Clinical isolate 13.2) was 40 µM. It also gave an MIC ([2]; P. aeruginosa Clinical isolate 23.1) of 40 µM, an MIC ([2]; P. aeruginosa Clinical isolate 27.1) of over 160 µM and an MIC ([2]; P. aeruginosa Clinical isolate 51.1) of 80 µM. For the same compound, the MIC ([2]; P. aeruginosa Clinical isolate 62.1) was 20 µM, the MIC ([2]; P. aeruginosa Clinical isolate 15159) was 20 µM and the MIC ([2]; P. aeruginosa Clinical isolate 18488) was 20 µM. For the same compound, the MIC ([3]; S. aureus ATCC 29213) was 10 µM, the MIC ([3]; S. aureus Clinical isolate 1086) was 10 µM and the MIC ([3]; S. aureus Clinical isolate 1088) was 20 µM. It also gave an MIC ([3]; S. aureus Clinical isolate 1090) of 80 µM, an MIC ([3]; S. aureus Clinical isolate 14312) of 20 µM and an MIC ([3]; S. aureus Clinical isolate 16065) of 5 µM. For the same compound, the MIC [4] was 160 µM, the MIC ([5]; S. pneumoniae Clinical isolate I-95) was 1.25 µM and the MIC ([5]; S. pneumoniae Clinical isolate I-104) was 160 µM. For the same compound, the MIC ([5]; S. pneumoniae Clinical isolate PJ1354) was 10 µM, the MIC ([5]; S. pneumoniae D39) was 5 µM and the MIC ([5]; S. pneumoniae TIGR4) was 2.5 µM. For the same compound, the MIC [6] was 5 µM.

In the case of `CC[C@H](C)[C@H](NC(=O)[C@H](CCCCN)NC(=O)[C@H](CCC(=O)O)NC(=O)[C@H](CCCCN)NC(=O)[C@H](CO)NC(=O)[C@H](CCCCN)NC(=O)[C@H](CCCNC(=N)N)NC(=O)[C@H](Cc1ccccc1)NC(=O)[C@H](Cc1ccccc1)NC(=O)[C@H](CC(=O)O)NC(=O)CNC(=O)[C@H](CC(C)C)NC(=O)[C@@H](N)CC(C)C)C(=O)NCC(=O)N[C@@H](CCCCN)C(=O)N[C@@H](CCC(=O)O)C(=O)N[C@@H](Cc1ccccc1)C(=O)N[C@@H](CCCCN)C(=O)N[C@@H](CCCNC(=N)N)C(=O)N[C@H](C(=O)N[C@H](C(=O)N[C@@H](CCC(N)=O)C(=O)N[C@@H](CCCNC(=N)N)C(=O)N[C@H](C(=O)N[C@@H](CCCCN)C(=O)N[C@@H](CC(=O)O)C(=O)N[C@@H](Cc1ccccc1)C(=O)N[C@@H](CC(C)C)C(=O)N[C@@H](CCCNC(=N)N)C(=O)N[C@@H](CC(N)=O)C(=O)N[C@@H](CC(C)C)C(=O)N[C@H](C(=O)N1CCC[C@H]1C(=O)N[C@@H](CCCNC(=N)N)C(=O)N[C@H](C(=O)N[C@@H](CCC(=O)O)C(=O)N[C@@H](CO)C(=O)O)[C@@H](C)O)C(C)C)[C@@H](C)CC)C(C)C)[C@@H](C)CC` [LL-37], the “Accompanying hemolysis in infected human blood” value [7] is listed as about 8%.
